tested on: Fusarium proliferatum; assay: Production of Fumonisin FB1 by Fusarium proliferatum (microtitre plate, FB1 by HPLC-MS/MS, growth by OD); type: cell-based; details: FB1 concentration in medium after 6 days at 20° C., HPLC-MS/MS

| SMILES | pI50 Fum |
| --- | --- |
| C=CCNC(=O)c1ccc(Nc2ncc(Cl)c(NC(C)COC)n2)cc1 (racemic) [Example 136] | 4.4 |
| COCC(C)Nc1nc(Nc2ccc(OC)c(OC)c2)ncc1Br (stereo not shown) [Example 74] | 4.6 |
| COCC(C)Nc1nc(Nc2cccc(OC)c2)ncc1Br (stereo not shown) [Example 109] | 4.7 |

same assay, conditions: OD620 at the beginning and after 6 days

| SMILES | pI50 growth |
| --- | --- |
| C=CCNC(=O)c1ccc(Nc2ncc(Cl)c(NC(C)COC)n2)cc1 (racemic) [Example 136] | <4.3 |
| CN(C)S(=O)(=O)c1cccc(Nc2ncc(Cl)c(NC(C)(C)C)n2)c1 [Example 51] | <4.3 |
| COCC(C)Nc1nc(Nc2ccc(OC)c(OC)c2)ncc1Br (stereo not shown) [Example 74] | <4.3 |
| COCC(C)Nc1nc(Nc2cccc(OC)c2)ncc1Br (stereo not shown) [Example 109] | <4.3 |

tested on: not listed separately; assay: logP by HPLC on reversed-phase columns (C 18), EEC Directive 79/831 Annex V.A8; type: physicochemical; details: LC-MS, pH 2.7, 0.1% aqueous formic acid and acetonitrile

| logP [b] | SMILES |
| --- | --- |
| 1.52[b] | COCC(C)Nc1nc(Nc2ccc(OC)nc2)ncc1Br (stereo not shown) [II-1] |
| 1.39[b] | COCC(C)Nc1nc(Nc2ccc(OC)nc2)ncc1Cl (stereo not shown) [II-2] |
| 1.17[b] | COCC(C)Nc1nc(Nc2ccc(NC3CC3)nc2)ncc1Cl (stereo not shown) [II-3] |

same assay, conditions: method marker [a]; footnote not given

| SMILES | logP |
| --- | --- |
| CN(C)S(=O)(=O)c1cccc(Nc2ncc(Cl)c(NC(C)(C)C)n2)c1 [Example 51] | 2.73[a] |

same assay, conditions: method marker [b] (compound 257: pH2.7)

| logP | SMILES |
| --- | --- |
| 2.3[b] | CCCNc1nc(Nc2cccc(SC)c2)ncc1Cl [Example 284] |
| 0.7[b] | OCCNc1nc(Nc2ccccc2)ncc1Cl [Example 285] |
| 1.64[b] | C=CCNc1nc(Nc2ccccc2)ncc1Cl [Example 286] |
| 2.14[b] | C[Si](C)(C)CNc1nc(Nc2ccccc2)ncc1Cl [Example 287] |
| 2.62[b] | C=C(C)CNc1nc(Nc2ccccc2)ncc1Cl [Example 288] |
| 2.17[b] | CC(C)=CCNc1nc(Nc2ccccc2)ncc1Cl [Example 289] |
| 1.76[b] | CCC(=O)N(C)c1cccc(Nc2ncc(Cl)c(NC(C)C)n2)c1 [Example 290] |
| 2.66[b] | CC(Nc1nc(Nc2ccccc2)ncc1Cl)[Si](C)(C)C (stereo not shown) [Example 291] |
| 1.32[b] | CNc1cccc(Nc2ncc(Cl)c(NC(C)C)n2)c1 [Example 292] |
| 1.75[b] | CSCCNc1nc(Nc2ccccc2)ncc1Cl [Example 293] |
| 1.87[b] | C=CCCNc1nc(Nc2ccccc2)ncc1Cl [Example 294] |
| 2.04[b] | COC(C)C(C)Nc1nc(Nc2ccccc2)ncc1Cl (stereo not shown) [Example 295] |
| 2.05[b] | CCC(C)Nc1nc(Nc2ccccc2)ncc1Cl (stereo not shown) [Example 296] |
| 1.48[b] | Cc1cnc(Nc2ccccc2)nc1NC(C)(C)C [Example 297] |
| 1.7[b] | CC(C)Nc1nc(Nc2cccc(Cn3cccn3)c2)ncc1Cl [Example 298] |

same assay, conditions: method marker [b]; footnote not given; compound 68 value matches logP (pH 2.3)

| SMILES | logP |
| --- | --- |
| COCC(C)Nc1nc(Nc2ccc(OC)c(OC)c2)ncc1Br (stereo not shown) [Example 74] | 1.55[b] |
| COCC(C)Nc1nc(Nc2cccc(OC)c2)ncc1Br (stereo not shown) [Example 109] | 1.9[b] |

same assay, conditions: method marker [c]

| logP | SMILES |
| --- | --- |
| 3.87[c]; | CCCNc1nc(Nc2cccc(SC)c2)ncc1Cl [Example 284] |
| 1.83[c]; | OCCNc1nc(Nc2ccccc2)ncc1Cl [Example 285] |
| 3.1[c]; | C=CCNc1nc(Nc2ccccc2)ncc1Cl [Example 286] |
| 2.89[c]; | CCC(=O)N(C)c1cccc(Nc2ncc(Cl)c(NC(C)C)n2)c1 [Example 290] |
| 3.64[c]; | COC(C)C(C)Nc1nc(Nc2ccccc2)ncc1Cl (stereo not shown) [Example 295] |

same assay, conditions: pH 2.3, 0.1% aqueous phosphoric acid and acetonitrile

| logP [a] | SMILES |
| --- | --- |
| 1.53[a]; | COCC(C)Nc1nc(Nc2ccc(OC)nc2)ncc1Br (stereo not shown) [II-1] |
| 0.58[a] | COCC(C)Nc1nc(Nc2ccc(O)nc2)ncc1Br (stereo not shown) [II-4] |

same assay, conditions: pH 2.3, 0.1% aqueous phosphoric acid and acetonitrile; read-out: logP [a]

| SMILES | chromatographic logP |
| --- | --- |
| CCC(CC)Nc1nc(Cl)ncc1Cl [Example V-23] | 3.39 |
| CCCCN(C)c1nc(Cl)ncc1Cl [Example V-28] | 3.89 |

same assay, conditions: pH 2.3, logP [a]

| chromatographic logP | SMILES |
| --- | --- |
| 2.1 | COCC(C)Nc1nc(Cl)ncc1Cl (stereo not shown) [Example V-1, 2,5-Dichloro-N-(3-methoxypropan-2-yl)pyrimidine-4-amine] |
| 2.26 | COCC(C)Nc1nc(Cl)ncc1Br (stereo not shown) [Example V-2, 5-bromo-2-chloro-N-(3-methoxypropan-2-yl)pyrimidine-4-amine] |
| 3.47 | CSCC(C)(C)Nc1nc(Cl)ncc1Cl [Example V-7, 2,5-dichloro-N-[2-methyl-1-(methylsulphanyl)propan-2-yl]pyrimidine-4-amine] |
| 1.27 | N#CCNc1nc(Cl)ncc1Cl [Example V-8, [(2,5-dichloropyrimidin-4-yl)amino]acetonitrile] |
| 2.46 | CC(C)Nc1nc(Cl)ncc1Cl [Example V-9, 2,5-dichloro-N-(propan-2-yl)pyrimidine-4-amine] |
| 3.16 | CC(C)N(C)c1nc(Cl)ncc1Cl [Example V-11, 2,5-dichloro-N-methyl-N-(propan-2-yl)pyrimidine-4-amine] |
| 3.16 | Clc1ncc(Cl)c(NC2CCCC2)n1 [Example V-12, 2,5-dichloro-N-(cyclopentyl)pyrimidine-4-amine] |
| 2.94 | CCC(C)Nc1nc(Cl)ncc1Cl (stereo not shown) [Example V-14, 2,5-dichloro-N-(butan-2-yl)pyrimidine-4-amine] |
| 2.68 | CCN(C)c1nc(Cl)ncc1Cl [Example V-19, 2,5-dichloro-N-ethyl-N-methylpyrimidine-4-amine] |
| 1.93 | CCNc1nc(Cl)ncc1Cl [Example V-20, 2,5-dichloro-N-ethylpyrimidine-4-amine] |

| SMILES | chromatographic logP |
| --- | --- |
| C=CCNc1nc(Cl)ncc1Cl [Example V-13, 2,5-dichloro-N-(prop-2-en-1-yl)pyrimidine-4-amine] | 2.12 |

same assay, conditions: reversed-phase HPLC column (C 18), pH 2.3, pH 2.3, 0.1% aqueous phosphoric acid and acetonitrile; read-out: logP [a]

| SMILES | chromatographic logP |
| --- | --- |
| COCCNc1nc(Cl)ncc1Cl [Example V-3, 2,5-dichloro-N-(2-methoxyethyl)pyrimidine-4-amine] | 1.65 |
| CCC(CO)Nc1nc(Cl)ncc1Cl (stereo not shown) [Example V-4, 2,5-dichloro-N-(1-hydroxybutan-2-yl)pyrimidine-4-amine] | 1.65 |
| OCCNc1nc(Cl)ncc1Cl [Example V-5, 2,5-dichloro-N-(2-hydroxyethyl)pyrimidine-4-amine] | 0.97 |
| CSCC(C)Nc1nc(Cl)ncc1Cl (stereo not shown) [Example V-6, 2,5-dichloro-N-[1-(methylsulphanyl)propan-2-yl]pyrimidine-4-amine] | 2.73 |
| CC(C)Nc1nc(Cl)ncc1Br [Example V-10, 5-bromo-2-chloro-N-(propan-2-yl)pyrimidine-4-amine] | 2.62 |
| CCC(C)N(C)c1nc(Cl)ncc1Cl (stereo not shown) [Example V-15, N-(butan-2-yl)-2,5-dichloro-N-methylpyrimidine-4-amine] | 3.62 |
| CCCCNc1nc(Cl)ncc1Cl [Example V-16, N-(butan-1-yl)-2,5-dichloropyrimidine-4-amine] | 2.91 |
| CC(C)(C)Nc1nc(Cl)ncc1Cl [Example V-17, N-t-butyl-2,5-dichloropyrimidine-4-amine] | 3.22 |
| Clc1ncc(Cl)c(NC2CCCCC2)n1 [Example V-18, 2,5-dichloro-N-cyclohexylpyrimidine-4-amine] | 3.47 |

Results, then the compound that gave them:

| chromatographic logP | SMILES |
| --- | --- |
| 2.75 | CCCNc1nc(Cl)ncc1Cl [Example V-21, 2,5-dichloro-N-propylpyrimidine-4-amine] |
| 3.45 | CC(C)CCNc1nc(Cl)ncc1Cl [Example V-22, 2,5-dichloro-N-(3-methylbutyl)pyrimidine-4-amine] |
| 3.42 | CCC(C)CNc1nc(Cl)ncc1Cl (stereo not shown) [Example V-24, 2,5-dichloro-N-(2-methylbutyl)pyrimidine-4-amine] |
| 3.31 | CCCN(C)c1nc(Cl)ncc1Cl [Example V-25, 2,5-dichloro-N-methyl-N-propylpyrimidine-4-amine] |
| 3.78 | CC(C)CN(C)c1nc(Cl)ncc1Cl [Example V-26, 2,5-dichloro-N-methyl-N-(2-methylpropyl)pyrimidine-4-amine] |
| 3.47 | CCCC(C)Nc1nc(Cl)ncc1Cl (stereo not shown) [Example V-27, 2,5-dichloro-N-(pent-2-yl)pyrimidine-4-amine] |
| 2.93 | CC(C)CNc1nc(Cl)ncc1Cl [Example V-29, 2,5-dichloro-N-(2-methylpropyl)pyrimidine-4-amine] |
| 3.8 | CCN(c1nc(Cl)ncc1Cl)C(C)C [Example V-30, 2,5-dichloro-N-ethyl-N-isopropylpyrimidine-4-amine] |
| 3.51 | CCCCCNc1nc(Cl)ncc1Cl [Example V-31, 2,5-dichloro-N-(pentyl)pyrimidine-4-amine] |
| 3.44 | CC(C)(C)CNc1nc(Cl)ncc1Cl [Example V-32, 2,5-dichloro-N-(2,2-dimethylpropyl)pyrimidine-4-amine] |
| 2.98 | C=CCN(C)c1nc(Cl)ncc1Cl [Example V-33, 2,5-dichloro-N-methyl-N-(prop-2-en-1-yl)pyrimidine-4-amine] |
| 2.05 | CCN(C)S(=O)(=O)Cc1cccc([N+](=O)[O-])c1 [IV-1, N-Ethyl-N-methyl-1-(3-nitrophenyl)methanesulphonamide] |
| 2.35 | CC(C)N(C)S(=O)(=O)Cc1cccc([N+](=O)[O-])c1 [IV-2, N-methyl-N-(propan-2-yl)-1-(3-nitrophenyl)methanesulphonamide] |
| 2.63 | CC(NS(=O)(=O)Cc1cccc([N+](=O)[O-])c1)c1ccccc1 (stereo not shown) [IV-3, N-(1-phenylethyl)-1-(3-nitrophenyl)methanesulphonamide] |
| 2.43 | O=[N+]([O-])c1cccc(CS(=O)(=O)NCc2ccccc2)c1 [IV-4, N-(benzyl)-1-(3-nitrophenyl)methanesulphonamide] |
| 1.08 | CC(C)N(C)S(=O)(=O)Cc1cccc(N)c1 [IV-6, 1-(3-aminophenyl)-N-methyl-N-(propan-2-yl)methanesulphonamide] |
| 1.53 | CC(NS(=O)(=O)Cc1cccc(N)c1)c1ccccc1 (stereo not shown) [IV-7, 1-(3-aminophenyl)-N-(1-phenylethyl)methanesulphonamide] |
| 1.32 | Nc1cccc(CS(=O)(=O)NCc2ccccc2)c1 [IV-8, 1-(3-aminophenyl)-N-benzylmethanesulphonamide] |
| 0.63 | CCC(=O)N(C)c1cccc(N)c1 [IV-9, N-(3-aminophenyl)-N-methylpropanamide] |
| 2.66 | N#Cc1cnc(Nc2ccccc2)nc1Cl [VIII-3, 4-Chloro-2-(phenylamino)pyrimidine-5-carbonitrile] |
| 4.87 | CC(C)c1cccc(Nc2ncc(C(F)(F)F)c(Cl)n2)c1 [VIII-4, 4-Chloro-N-[3-(propan-2-yl)phenyl]-5-(trifluoromethyl)pyrimidine-2-amine] |

same assay, conditions: values marked [b]; footnote not given

| SMILES | logP |
| --- | --- |
| C=CCNC(=O)c1ccc(Nc2ncc(Cl)c(NC(C)COC)n2)cc1 (racemic) [Example 136] | 1.64[b] |

Source: patent US20110230478A1 (Bayer ScienceCrop AG, priority 2008, published 2011)
